From US11420970B1 (NOVARTIS AG, priority 2019, dated 2022)
Like-named read-outs stand apart in the source and are kept apart here.

How the values were obtained:
NSD2 [1-1365] = NSD2 [1-1365] (Homo sapiens (Human), UniProt O96028); assay: LC-MS/MS-based NSD2 enzymatic assay (SAH production); assay type: biochemical; conditions: read-out: NSD2 IC50
In short: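 Full-length NSD2 [1-1365] (8 nM final) with 1 μM SAM and 400 nM mouse-liver nucleosome in Tris pH 8.0 buffer; inhibitor preincubated 20 min with enzyme/SAM before nucleosome addition. Reaction 90 min at room temperature, TFA-quenched; SAH quantified by LC-MS/MS against d4-SAH internal standard and SAH standard curve.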

[1] = test system: cellular H3K36me2 level in multiple myeloma cell line KMS11 (t(4;14)+); assay: H3K36me2 cellular ELISA assay in KMS11-Par line; assay type: cell-based; conditions: Homo sapiens, KMS-11, ELISA, read-out: H3K36me2 ELISA in KMS11-Par
In short: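 KMS11 cells were seeded a day ahead at 1,250 per well in Opti-MEM with B-27/N2, then treated with compound for 72 h. Histones were acid-extracted with 0.4M HCl, and H3K36me2 and total H3 were read by chemiluminescent ELISA. Viability was checked with CellTiter-Glo on a parallel plate in maintenance media.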

[2] = test system: cellular H3K36me2 level in thyroid carcinoma cell line CGTH-W-1 (NSD2 E1099K); assay: H3K36me2 cellular ELISA assay in CGTH-W-1 line; assay type: cell-based; conditions: Homo sapiens, read-out: H3K36me2 ELISA in CGTH-W-1
Method: H3K36Me2 Cellular ELISA Assay in CGTH-W-1 Line
An ELISA (enzyme-linked immunosorbent assay) based assay was used to test the ability of candidate compound to reduce cellular H3K36me2 level in thyroid carcinoma cell line CGTH-W-1, carrying NSD2 E1099K gain of function mutation. CGTH-W-1 (DSMZ) cells are maintained in RPM11640 media with 10% FBS and 50 U/ml Penicillin-Streptomycin.
Cells were treated with tested compounds at the desired concentration for 72 hours.
Histone bound plates were washed and blocked with 5% BSA. […] The abundance of H3K36me2 and total H3 was measured by Chemiluminesce on a plate reader. Cell viability was monitored on a parallel seeded plate with CellTiter-Glo reagent (Promega #G7573).

[3] = NSD2 biochemical activity, class symbols
[4] = KMS11-Par line (t(4;14)+), 72 hours treatment

Sequence of NSD2 [1-1365] (O96028 whole entry): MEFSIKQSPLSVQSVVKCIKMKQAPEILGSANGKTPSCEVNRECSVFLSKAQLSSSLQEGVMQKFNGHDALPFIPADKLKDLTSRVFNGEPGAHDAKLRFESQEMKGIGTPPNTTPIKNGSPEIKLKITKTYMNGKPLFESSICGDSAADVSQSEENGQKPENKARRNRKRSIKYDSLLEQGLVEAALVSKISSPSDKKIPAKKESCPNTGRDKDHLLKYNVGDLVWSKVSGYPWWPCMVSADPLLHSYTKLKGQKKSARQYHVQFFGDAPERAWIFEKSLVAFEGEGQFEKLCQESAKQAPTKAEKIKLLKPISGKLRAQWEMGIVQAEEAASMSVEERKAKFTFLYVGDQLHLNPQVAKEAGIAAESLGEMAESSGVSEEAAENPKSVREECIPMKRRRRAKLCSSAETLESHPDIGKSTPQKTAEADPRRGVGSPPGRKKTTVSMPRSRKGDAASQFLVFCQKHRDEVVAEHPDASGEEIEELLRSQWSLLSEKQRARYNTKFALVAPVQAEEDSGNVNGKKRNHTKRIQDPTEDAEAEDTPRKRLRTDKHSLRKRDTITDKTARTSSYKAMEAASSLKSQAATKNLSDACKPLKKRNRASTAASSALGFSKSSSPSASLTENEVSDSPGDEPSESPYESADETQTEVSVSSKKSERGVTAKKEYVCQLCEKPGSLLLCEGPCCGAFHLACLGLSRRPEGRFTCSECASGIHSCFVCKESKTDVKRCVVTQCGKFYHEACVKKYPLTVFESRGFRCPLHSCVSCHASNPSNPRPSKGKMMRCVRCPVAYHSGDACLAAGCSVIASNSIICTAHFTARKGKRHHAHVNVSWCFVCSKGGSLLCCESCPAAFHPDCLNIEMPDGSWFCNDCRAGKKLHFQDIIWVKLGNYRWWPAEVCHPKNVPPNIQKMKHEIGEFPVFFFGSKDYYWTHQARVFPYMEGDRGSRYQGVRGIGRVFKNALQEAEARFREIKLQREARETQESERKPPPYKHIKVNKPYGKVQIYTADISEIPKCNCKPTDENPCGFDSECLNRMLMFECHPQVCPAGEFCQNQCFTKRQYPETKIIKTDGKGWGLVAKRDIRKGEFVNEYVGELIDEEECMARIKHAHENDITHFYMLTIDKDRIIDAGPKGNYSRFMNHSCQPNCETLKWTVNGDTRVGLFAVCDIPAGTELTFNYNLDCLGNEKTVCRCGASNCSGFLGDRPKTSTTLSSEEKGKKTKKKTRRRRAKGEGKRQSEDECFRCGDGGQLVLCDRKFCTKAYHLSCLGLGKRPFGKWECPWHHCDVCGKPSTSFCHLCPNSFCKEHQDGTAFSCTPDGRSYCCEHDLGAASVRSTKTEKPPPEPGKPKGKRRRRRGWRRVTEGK

| IC50 ([2]; CGTH-W-1 line, ELISA, 72 hours) | SMILES | IC50 (NSD2 [1-1365]; [3]) | IC50 [1, 4] | IC50 ([2]; CGTH-W-1, 72 h) | IC50 (NSD2 [1-1365]) | IC50 ([1]; KMS11-Par line, 72 hours) |
| --- | --- | --- | --- | --- | --- | --- |
| – | Nc1ncnc2c1ncn2Cc1cc(-c2ccc(Cl)cc2F)ncc1N1CCC[C@](N)([C@H](O)C(F)F)C1 [Example 148, (S)-1-((R)-3-amino-1-(4-((6-amino-9H-purin-9-yl)methyl)-6-(4-chloro-2-fluorophenyl)pyridin-3-yl)piperidin-3-yl)-2,2-difluoroethan-1-ol] | 0.01 to 1 µM | 2.16 µM | 0.671 µM | – | – |
| – | COc1cc(F)c(-c2cc(Cn3cnc4c(N)ncnc43)c(N3CCC[C@](N)([C@@H](O)C(F)F)C3)cn2)cc1F [Example 160, (R)-1-((R)-3-amino-1-(4-((6-amino-9H-purin-9-yl)methyl)-6-(2,5-difluoro-4-methoxyphenyl)pyridin-3-yl)piperidin-3-yl)-2,2-difluoroethan-1-ol] | 0.001 to 0.01 µM | 0.434 µM | 0.035 µM | – | – |
| – | CC[C@@H](C)C(=O)[C@@]1(N)CCCN(c2cnc(-c3ccc(F)c(F)c3)cc2Cn2cnc3c(N)ncnc32)C1 [Example 102, (R)-1-((R)-3-amino-1-(4-((6-amino-9H-purin-9-yl)methyl)-6-(3,4-difluorophenyl)pyridin-3-yl)piperidin-3-yl)-2-methylbutan-1-one] | 0.01 to 1 µM | 0.252 µM | 0.06 µM | – | – |
| – | CC(O)c1ccc([C@@]2(N)CCCN(c3cnc(-c4ccc(F)c(F)c4)cc3Cn3cnc4c(N)ncnc43)C2)nc1Cl (stereo partly drawn) [Example 234, 1-(6-((R)-3-amino-1-(4-((6-amino-9H-purin-9-yl)methyl)-6-(3,4-difluorophenyl)pyridin-3-yl)piperidin-3-yl)-2-chloropyridin-3-yl)ethan-1-ol] | – | – | 1.62 µM | 0.01 to 1 µM | 5.99 µM |
| – | Nc1ncnc2c1ncn2Cc1cc(-c2ccc(F)cc2)ncc1N1CCC[C@](N)(c2cccc(C3CC3)n2)C1 [Example 182, (R)-9-((5-(3-amino-3-(6-cyclopropylpyridin-2-yl)piperidin-1-yl)-2-(4-fluorophenyl)pyridin-4-yl)methyl)-9H-purin-6-amine] | – | – | 0.0975 µM | 0.001 to 0.01 µM | 0.142 µM |
| – | Nc1ncnc2c1ncn2Cc1cc(-c2ccc(F)c(F)c2)ncc1N1CCCC(N)(c2ccc(O)c(F)n2)C1 (stereo not drawn) [Example 214, 6-(3-amino-1-(4-((6-amino-9H-purin-9-yl)methyl)-6-(3,4-difluorophenyl)pyridin-3-yl)piperidin-3-yl)-2-fluoropyridin-3-ol] | – | – | 0.444 µM | 0.01 to 1 µM | 2.43 µM |
| – | C[C@H](F)c1cccc([C@@]2(N)CCCN(c3cnc(-c4ccc(F)cc4)cc3Cn3cnc4c(N)ncnc43)C2)n1 [Example 183, 9-((5-((R)-3-amino-3-(6-((S)-1-fluoroethyl)pyridin-2-yl)piperidin-1-yl)-2-(4-fluorophenyl)pyridin-4-yl)methyl)-9H-purin-6-amine] | – | – | 0.159 µM | 0.01 to 1 µM | 0.455 µM |
| – | Nc1ncnc2c1ncn2Cc1cc(-c2ccc3c(c2)OCO3)ncc1N1CCCC(N)(c2cccc(Cl)n2)C1 (stereo not drawn) [Example 186, 9-((5-(3-amino-3-(6-chloropyridin-2-yl)piperidin-1-yl)-2-(benzo[d][1,3]dioxo1-5-yl)pyridin-4-yl)methyl)-9H-purin-6-amine] | – | – | 0.967 µM | 0.01 to 1 µM | – |
| – | Nc1ncnc2c1ncn2Cc1cc(-c2ccc(F)c(F)c2)ncc1N1CCC[C@](N)(c2cccc(O)n2)C1 [Example 217, (R)-6-(3-amino-1-(4-((6-amino-9H-purin-9-yl)methyl)-6-(3,4-difluorophenyl)pyridin-3-yl)piperidin-3-yl)pyridin-2-ol] | – | – | 2.24 µM | 0.001 to 0.01 µM | – |
| – | Cn1cc(C2(N)CCCN(c3cnc(-c4ccc(F)c(F)c4)cc3Cn3cnc4c(N)ncnc43)C2)nn1 (stereo not drawn) [Example 282, 9-((5-(3-amino-3-(1-methyl-1H-1,2,3-triazol-4-yl)piperidin-1-yl)-2-(3,4-difluorophenyl)pyridin-4-yl)methyl)-9H-purin-6-amine] | – | – | 1.53 µM | 0.01 to 1 µM | – |
| – | Nc1ncnc2c1ncn2Cc1cc(-c2ccc(F)c(F)c2)ncc1N1CCCC(N)(c2ccncn2)C1 (stereo not drawn) [Example 255, 9-((5-(3-amino-3-(pyrimidin-4-yl)piperidin-1-yl)-2-(3,4-difluorophenyl)pyridin-4-yl)methyl)-9H-purin-6-amine] | – | – | 0.232 µM | 0.01 to 1 µM | – |
| – | COc1cccc([C@@]2(N)CCCN(c3cnc(-c4ccc(F)c(F)c4)cc3Cn3cnc4c(N)ncnc43)C2)n1 [Example 178, (R)-9-((5-(3-amino-3-(6-methoxypyridin-2-yl)piperidin-1-yl)-2-(3,4-difluorophenyl)pyridin-4-yl)methyl)-9H-purin-6-amine] | – | – | 0.23 µM | 0.001 to 0.01 µM | – |
| – | NC(=O)c1cccc(C2(N)CCCN(c3cnc(-c4ccc(F)c(F)c4)cc3Cn3cnc4c(N)ncnc43)C2)n1 (stereo not drawn) [Example 195, 6-(3-amino-1-(4-((6-amino-9H-purin-9-yl)methyl)-6-(3,4-difluorophenyl)pyridin-3-yl)piperidin-3-yl)picolinamide] | – | – | 4.92 µM | 0.01 to 1 µM | – |
| – | COc1ccc(-c2cc(Cn3cnc4c(N)ncnc43)c(N3C[C@H](N)C[C@@H](CF)C3)cn2)cc1F [Example 306, 9-((5-((3R,5R)-3-amino-5-(fluoromethyl)piperidin-1-yl)-2-(3-fluoro-4-methoxyphenyl)pyridin-4-yl)methyl)-9H-purin-6-amine] | – | – | 6.46 µM | 0.01 to 1 µM | – |
| – | Nc1ncnc2c1ncn2Cc1cc(-c2ccc(F)cc2)ncc1N1CCC[C@](N)(c2ccc(F)c(C(F)F)n2)C1 [Example 218, (R)-9-((5-(3-amino-3-(6-(difluoromethyl)-5-fluoropyridin-2-yl)piperidin-1-yl)-2-(4-fluorophenyl)pyridin-4-yl)methyl)-9H-purin-6-amine] | – | – | 0.101 µM | 0.01 to 1 µM | – |
| – | Nc1ncnc2c1ncn2Cc1cc(-c2ccc(OC(F)F)c(F)c2)ncc1N1CCCC(N)(c2cccc(Cl)n2)C1 (stereo not drawn) [Example 228, 9-((5-(3-amino-3-(6-chloropyridin-2-yl)piperidin-1-yl)-2-(4-(difluoromethoxy)-3-fluorophenyl)pyridin-4-yl)methyl)-9H-purin-6-amine] | – | – | 0.611 µM | 0.01 to 1 µM | – |
| – | Nc1ncnc2c1ncn2Cc1cc(-c2ccc(F)c(F)c2)ncc1N1CCCC(N)(c2cccnn2)C1 (stereo not drawn) [Example 253, 9-((5-(3-amino-3-(pyridazin-3-yl)piperidin-1-yl)-2-(3,4-difluorophenyl)pyridin-4-yl)methyl)-9H-purin-6-amine] | – | – | 0.357 µM | 0.01 to 1 µM | – |
| – | N#Cc1cccc(C2(N)CCCN(c3cnc(-c4ccc(F)c(F)c4)cc3Cn3cnc4c(N)ncnc43)C2)n1 (stereo not drawn) [Example 208, 6-(3-amino-1-(4-((6-amino-9H-purin-9-yl)methyl)-6-(3,4-difluorophenyl)pyridin-3-yl)piperidin-3-yl)picolinonitrile] | – | – | 2.78 µM | 0.01 to 1 µM | – |
| 0.324 µM | Nc1ncnc2c1ncn2Cc1cc(-c2ccc(F)c(F)c2)ncc1N1CCC[C@](N)(c2ccc(OC(F)F)cn2)C1 [Example 209, (R)-9-((5-(3-amino-3-(5-(difluoromethoxy)pyridin-2-yl)piperidin-1-yl)-2-(3,4-difluorophenyl)pyridin-4-yl)methyl)-9H-purin-6-amine] | – | – | – | 0.001 to 0.01 µM | – |
